Experimental data as given in patent US12398151B2, “Sumo inhibitor compounds and uses thereof” (SUVALENT THERAPEUTICS, INC., priority 2019, dated 2025).
Where two headings read alike, the source gives them in different places.

Key:
[1] = target: T1, SUMO E1 (Homo sapiens, UniProt Q9UBT2); assay: SUMO E1 inhibition: UBC9-SUMO1 conjugation by SDS gel electrophoresis; assay type: biochemical; details: read-out: SUMO E1 percent inhibition of adduct formation; for inhibition at 25 µM: 25 uM compound; for inhibition at 27 µM: 27 uM compound; for inhibition at 9 µM: 9 uM compound; for inhibition at 6 µM: 6 uM compound; for inhibition at 1 µM: 1 uM compound; for inhibition at 10 µM: 10 uM compound
T1 sequence (Q9UBT2 1-640): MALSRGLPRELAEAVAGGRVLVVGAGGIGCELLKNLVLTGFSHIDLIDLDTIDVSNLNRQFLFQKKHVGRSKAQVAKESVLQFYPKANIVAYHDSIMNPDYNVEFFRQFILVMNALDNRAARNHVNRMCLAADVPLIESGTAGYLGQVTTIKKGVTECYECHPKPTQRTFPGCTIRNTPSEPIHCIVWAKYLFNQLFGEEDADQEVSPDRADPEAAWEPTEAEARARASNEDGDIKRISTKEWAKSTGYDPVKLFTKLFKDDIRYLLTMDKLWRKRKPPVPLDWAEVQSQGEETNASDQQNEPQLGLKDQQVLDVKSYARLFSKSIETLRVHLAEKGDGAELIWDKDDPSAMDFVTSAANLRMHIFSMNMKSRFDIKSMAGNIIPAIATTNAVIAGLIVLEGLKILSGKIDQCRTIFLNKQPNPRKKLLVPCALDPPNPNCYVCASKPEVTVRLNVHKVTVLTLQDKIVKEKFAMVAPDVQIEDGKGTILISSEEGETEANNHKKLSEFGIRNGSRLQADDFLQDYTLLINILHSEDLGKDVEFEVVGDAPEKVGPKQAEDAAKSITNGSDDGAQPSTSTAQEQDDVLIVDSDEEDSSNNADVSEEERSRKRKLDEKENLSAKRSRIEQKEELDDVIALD
T1 sequence (Q9UBE0 1-346 partner): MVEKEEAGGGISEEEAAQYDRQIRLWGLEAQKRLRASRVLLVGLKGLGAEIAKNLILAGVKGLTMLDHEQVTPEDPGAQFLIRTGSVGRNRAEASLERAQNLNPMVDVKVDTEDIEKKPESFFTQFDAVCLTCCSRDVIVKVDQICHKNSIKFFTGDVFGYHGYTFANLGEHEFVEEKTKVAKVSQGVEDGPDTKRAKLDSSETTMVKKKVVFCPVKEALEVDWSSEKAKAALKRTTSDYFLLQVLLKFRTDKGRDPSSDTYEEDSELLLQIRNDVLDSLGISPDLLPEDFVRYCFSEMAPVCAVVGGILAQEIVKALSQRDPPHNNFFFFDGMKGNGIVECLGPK
Description: (§1) Compounds are evaluated for their inhibitory effect on activating enzymes (E1) of ubiquitin, SUMO, Nedd8, Urm1, ISG15 or Atg7 using previously reported methods and protocols. One example is in: Allosteric inhibition of ubiquitin-like modifications by a class of inhibitor of SUMO-activating enzyme. Cell Chemical Biology, 26, 1-11, 2019. PMID: 28051857.
(§2) Compounds are tested in the following manner. The compound and SUMO E1 are incubated for a predetermined amount of time. UBC9, SUMO1, and ATP are added to the E1-compound mixture and incubated at 37° C. The reaction is quenched with Laemmli Buffer. The UBC9-SUMO1 conjugation is analyzed via SDS gel electrophoresis. The percent inhibition is measured by the intensity of the UBC9-SUMO1 band compared to the no compound control. Activities are listed as compound concentration (uM), preincubation time of E1 with compound (min), and percent inhibition of adduct formation (%). […]

[2] = target: T2, Atg7 (Homo sapiens, UniProt O95352); assay: Atg7 activating enzyme (E1) inhibition; assay type: biochemical; details: 25 uM compound, 60 min preincubation; read-out: Atg7 percent inhibition of adduct formation
T2 sequence (O95352 1-703): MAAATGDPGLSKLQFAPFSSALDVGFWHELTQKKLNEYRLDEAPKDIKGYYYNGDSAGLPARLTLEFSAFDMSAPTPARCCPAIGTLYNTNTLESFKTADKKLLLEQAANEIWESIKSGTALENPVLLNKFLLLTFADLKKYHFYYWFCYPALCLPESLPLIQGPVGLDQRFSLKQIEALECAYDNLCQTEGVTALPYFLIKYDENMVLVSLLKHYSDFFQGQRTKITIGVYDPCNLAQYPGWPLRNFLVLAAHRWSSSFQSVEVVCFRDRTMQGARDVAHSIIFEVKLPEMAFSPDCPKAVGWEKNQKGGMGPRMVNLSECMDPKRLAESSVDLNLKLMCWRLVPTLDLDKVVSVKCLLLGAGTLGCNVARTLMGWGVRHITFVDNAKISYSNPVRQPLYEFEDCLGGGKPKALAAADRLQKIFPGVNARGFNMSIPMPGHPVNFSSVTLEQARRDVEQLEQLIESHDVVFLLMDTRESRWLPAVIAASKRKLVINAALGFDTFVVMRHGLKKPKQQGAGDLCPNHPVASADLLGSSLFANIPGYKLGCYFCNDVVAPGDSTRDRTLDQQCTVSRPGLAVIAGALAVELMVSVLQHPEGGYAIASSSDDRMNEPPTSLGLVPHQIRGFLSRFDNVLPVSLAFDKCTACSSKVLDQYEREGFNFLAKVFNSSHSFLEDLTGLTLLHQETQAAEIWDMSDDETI
Description: as §1, §2

inhibition at 25 µM ([1]; 60 min preincubation) [%] | inhibition at 25 µM [2] [%] | Compound | other results
< 1 | < 1 | C=CC(=O)N1CCc2cc(Oc3cccc(C)c3)ccc2C1 [Compound 53] | –
50 | < 1 | C=CC(=O)N1Cc2ccc(Br)cc2[C@@H](c2ccccc2Br)C1 [Compound 55] | –
< 1 | < 1 | C=CC(=O)N1Cc2cc(OC)ccc2[C@@H](c2ccc(Cl)cc2)C1 [Compound 34] | –
– | 80 | C=CC(=O)N1Cc2sc(Cl)cc2[C@@H](c2ccccc2OC)C1 [Compound 109] | inhibition at 27 µM ([1]; 30 min preincubation): 30%
– | < 1 | C=CC(=O)N1Cc2sc(Cl)cc2[C@@H](c2ccccc2CC2CCOCC2)C1 [Compound 138] | inhibition at 9 µM ([1]; 15 min preincubation): 50%
– | < 1 | C=CC(=O)N1Cc2sc(Cl)cc2[C@@H]([C@@H](CC)C(=O)O)C1 [Compound 134] | inhibition at 27 µM ([1]; 15 min preincubation): < 1%
– | < 1 | C=CC(=O)N1Cc2sc(Cl)cc2[C@@H](c2ccccc2OCCCN(C)C)C1 [Compound 152] | inhibition at 6 µM ([1]; 15 min preincubation): < 1%
– | < 1 | C=CC(=O)N[C@H]1Cc2ccsc2[C@@H](c2ccccc2C)C1 [Compound 117] | inhibition at 27 µM ([1]; 30 min preincubation): < 1%
< 1 | < 1 | C=CC(=O)N1Cc2ccc(-c3ccccc3)cc2[C@@H](c2ccccc2)C1 [Compound 38] | –
– | < 1 | C=C(C)C(=O)N1Cc2sc(Cl)cc2[C@@H](c2ccccc2C)C1 [Compound 106] | inhibition at 27 µM ([1]; 30 min preincubation): < 1%
– | < 1 | C=CC(=O)N1Cc2ccsc2[C@@H](c2ccccc2)C1 [Compound 116] | inhibition at 27 µM ([1]; 30 min preincubation): < 1%
< 1 | < 1 | C=CC(=O)N1Cc2c(C)cc(Br)cc2[C@@H](c2ccccc2)C1 [Compound 47] | –
< 1 | < 1 | C=CC(=O)N1Cc2ccccc2[C@@H](c2cccc(O)c2)C1 [Compound 45] | –
20 | < 1 | C=CC(=O)N1Cc2cccc(Br)c2[C@@H](c2ccccc2OC)C1 [Compound 71] | –
– | < 1 | C=CC(=O)N1Cc2sccc2[C@@H](C2CCCCC2)C1 [Compound 123] | inhibition at 9 µM ([1]; 30 min preincubation): 40%
– | < 1 | C=CC(=O)N1Cc2sc(Cl)cc2[C@@H](c2ccccc2OCCN(C)C)C1 [Compound 151] | inhibition at 6 µM ([1]; 15 min preincubation): < 1%
< 1 | < 1 | C=CC(=O)N1Cc2ccc(CCO)cc2[C@@H](c2ccccc2)C1 [Compound 40] | –
– | < 1 | Cc1ccccc1[C@H]1CN(C(=O)[C@@H]2CO2)Cc2sc(Cl)cc21 [Compound 105] | inhibition at 27 µM ([1]; 30 min preincubation): < 1%
< 1 | < 1 | C=CC(=O)N1Cc2ccc(C(C)C)cc2[C@@H](c2ccccc2)C1 [Compound 39] | –
– | – | C=CC(=O)N1Cc2sc(Cl)cc2[C@@H](c2cccc(C)c2C)C1 [Compound 149] | inhibition at 1 µM ([1]; 30 min preincubation): 90%
– | < 1 | C=CC(=O)N1Cc2cc(Cl)ccc2[C@@H](c2ccccc2)C1 [Compound 64] | inhibition at 10 µM ([1]; 60 min preincubation): 100%

inhibition at 25 µM ([1]; 60 min preincubation) [%] | inhibition at 25 µM [2] [%] | Compound | other results
– | < 1 | C=CC(=O)N1Cc2sccc2[C@@H](c2ccc(OC)cc2)C1 [Compound 155] | inhibition at 15 µM ([1]; 15 uM compound, 15 min preincubation): < 1%
– | < 1 | Cc1ccccc1[C@H]1CN(C(=O)/C=C/c2ccccn2)Cc2sc(Cl)cc21 [Compound 119] | inhibition at 27 µM ([1]; 30 min preincubation): < 1%
< 1 | < 1 | C=CC(=O)N1CCc2ccccc2[C@@H]1c1ccccc1 (stereo in doubt) [Compound 10] | –
– | < 1 | C=CC(=O)N1Cc2cccc(Br)c2[C@@H](c2ccccc2C)C1 [Compound 69] | inhibition at 10 µM ([1]; 60 min preincubation): 60%
– | < 1 | O=C(/C=C/C(F)(F)F)N1Cc2sc(Cl)cc2[C@@H](c2ccccc2CC2CCOCC2)C1 [Compound 141] | inhibition at 1 µM ([1]; 30 min preincubation): 50%
< 1 | < 1 | C=CC(=O)N1Cc2ccc(CC)cc2[C@@H](c2ccccc2)C1 [Compound 41] | –
– | – | C=CC(=O)N1Cc2sc(Cl)cc2[C@@H](c2ccccc2-c2ccccc2C(F)(F)F)C1 [Compound 156] | inhibition at 9 µM ([1]; 15 min preincubation): < 1%
– | < 1 | C=CC(=O)N1Cc2sc(Cl)c(F)c2[C@@H](c2ccccc2C)C1 [Compound 150] | inhibition at 22 µM ([1]; 22 uM compound, 30 min preincubation): 50%
– | < 1 | C=CC(=O)N1CCc2ccc(Br)cc2C1 [Compound 2] | inhibition at 25 µM ([1]; 55 min preincubation of E1 with compound): 50%
90 | < 1 | C=CC(=O)N1Cc2ccc(Br)cc2[C@@H](c2ccccc2)C1 [Compound 29] | –
– | – | C=CC(=O)N1Cc2sc(Cl)cc2[C@@H](Cc2ccccc2)C1 [Compound 126] | inhibition at 27 µM ([1]; 20 min preincubation): 40%
– | – | C=CC(=O)N1Cc2sc(Cl)cc2[C@@H](c2ccccc2CC)C1 [Compound 144] | inhibition at 27 µM ([1]; 30 min preincubation): 95%
– | – | C=CC(=O)N1Cc2sc(Cl)cc2[C@@H](c2ccccc2Br)C1 [Compound 158] | inhibition at 16 µM ([1]; 16 uM compound, 45 min preincubation): < 1%
– | – | C=CC(=O)Oc1cccc([C@H]2CN(C(=O)C=C)Cc3ccccc32)c1 [Compound 44] | inhibition at 18 µM ([1]; 18 uM compound, 30 min preincubation): 50%
– | – | C=CC(=O)N1Cc2sc(Cl)cc2[C@@H](C2CCCCC2)C1 [Compound 124] | inhibition at 1 µM ([1]; 30 min preincubation): 100%
– | – | C=CC(=O)Oc1cccc([C@H]2CN(C(C)=O)Cc3ccccc32)c1 [Compound 50] | inhibition at 10 µM ([1]; 60 min preincubation): 50%
– | – | C=CC(=O)N1Cc2sc(Cl)cc2[C@@H](C2CCCC2)C1 [Compound 125] | inhibition at 27 µM ([1]; 30 min preincubation): 100%
– | – | C=CC(=O)N1Cc2sc(C)cc2[C@@H](c2ccccc2)C1 [Compound 81] | inhibition at 10 µM ([1]; 30 min preincubation): 30%
< 1 | – | C=CC(=O)N1Cc2ccccc2[C@@H](c2ccccc2)C1 [Compound 28] | –
– | – | Cc1ccccc1[C@H]1CN(C(=O)/C=C/CBr)Cc2sc(Cl)cc21 [Compound 131] | inhibition at 9 µM ([1]; 15 min preincubation): < 1%
< 1 | – | CCOC(=O)/C=C/CN1Cc2ccccc2[C@@H](c2ccccc2)C1 [Compound 33] | –
